Assay results: patent publication US20230190761A1, “METHYLENE BLUE STABILIZED MRNA COMPOSITIONS” (ModernaTX, Inc., priority 2020, published 2023)
Where a name gives a salt, the structure may show the parent alone.

What was measured:
Assay type in all cases: physicochemical
[1] = test system: mRNA within LNP formulations; experiment: Screen of molecular dyes on mRNA stability within LNP formulations (RP-HPLC); conditions: for Main Peak Purity after 4 days at 40° C. (%): 2 mM dye in mRNA-LNP, RP-HPLC, no value (—) = physically unstable, no reliable chromatographic result, interpreted as destabilizing; for Difference relative to No Dye: main peak purity, ±4% interpreted as significant; for Difference relative to No Dye / stabilization effect on mRNA in LNP: 2 mM dye, 4 days at 40° C.
Method: This example discusses the effects of various dye molecules on mRNA stability within LNP formulations. To evaluate the potential stabilization effects of dyes, LNP compositions were prepared containing 2 mM of one of 25 dyes. After incubation for 4 days at 40° C., main peak mRNA purity was measured by RP-HPLC. Variance within this study was estimated from three independent sample replicates with no dye (Sample IDs D0a, D0b and D0c as shown in Table 4) or with 2 mM methylene blue (Sample IDs D1a, D1b and D1c as shown in Table 4). […] The main peak purity measured in each mRNA-LNP formulation, as well as its difference relative to the no dye controls is shown in Table 4. Positive differences relative to no dye represent improvements in mRNA stability, and negative differences represent worsened mRNA stability.

[2] = test system: lipid nanoparticles (LNP); experiment: Permeation of phenothiazinium dyes into LNP and binding to encapsulated mRNA; conditions: optical spectroscopic studies, Cryo-EM, DLS, isothermal titration calorimetry
Text: This example describes phenothiazinium dyes which interact with mRNA and their impact on LNP formulations. […] These interpretations were made based on extensive optical spectroscopic studies, Cryo-EM, dynamic light scattering (DLS) and isothermal titration calorimetry studies.

mRNA-LNP = experiment: Conventional antioxidants versus methylene blue on mRNA-LNP stability; conditions: 2 mM KDS, 5 mM KDS or 5 mM methionine, presence or absence of 2 mM methylene blue
Method: This example discusses the effects of conventional pharmaceutical antioxidants on mRNA stability. To evaluate the effects conventional pharmaceutical antioxidants might have on mRNA stability relative to methylene blue, a direct comparative study was performed between methionine, potassium metabisulfite (KDS) and methylene blue. mRNA purity was measured after incubation of mRNA-LNP compositions with no additive, or with 2 mM KDS, 5 mM KDS, or 5 mM methionine, in the presence or absence of 2 mM methylene blue.

Compound: Cc1c(C(=O)O)c(O)cc2c1C(=O)c1c(O)c(C3O[C@H](CO)[C@@H](O)[C@H](O)[C@H]3O)c(O)c(O)c1C2=O (stereo in doubt) [Carmine]
- Main Peak Purity after 4 days at 40° C. (%) [1]: 74.27%
- Difference relative to No Dye [1]: −1%

Compound: CN(C)c1ccc2cc3ccc(N(C)C)cc3nc2c1 [Acridine Orange hydrochloride hydrate]
- Main Peak Purity after 4 days at 40° C. (%) [1]: 69.92%
- Difference relative to No Dye [1]: −5%

Compound: CN(C)c1ccc2nc3ccc(N)cc3[s+]c2c1 [Azure A chloride]
- Main Peak Purity after 4 days at 40° C. (%) [1]: 90.36%
- stabilization effect on mRNA in LNP [1]: stabilization effects similar to that of methylene blue
- Difference relative to No Dye [1]: 15%
- permeation of lipid nanoparticles and binding to encapsulated mRNA [2]: can permeate lipid nanoparticles (LNP) and bind to encapsulated mRNA without altering the gross structure of the LNP

Compound: CNc1ccc2nc3ccc(=[N+](C)C)cc-3sc2c1 [Azure B]
- Main Peak Purity after 4 days at 40° C. (%) [1]: 90.16%
- stabilization effect on mRNA in LNP [1]: stabilization effects similar to that of methylene blue
- Difference relative to No Dye [1]: 15%
- permeation of lipid nanoparticles and binding to encapsulated mRNA [2]: can permeate lipid nanoparticles (LNP) and bind to encapsulated mRNA without altering the gross structure of the LNP

Compound: CN(C)c1ccc(C(=C2C=CC(=[N+](C)C)C=C2)c2ccc(N(C)C)cc2)cc1 [Crystal Violet]
- Main Peak Purity after 4 days at 40° C. (%) [1]: 24.79%
- Difference relative to No Dye [1]: −50%

Compound: O=C(O)c1ccccc1-c1c2cc([N+](=O)[O-])c(=O)c(Br)c-2oc2c(Br)c(O)c([N+](=O)[O-])cc12 [Eosin B]
- Main Peak Purity after 4 days at 40° C. (%) [1]: 78.00%
- Difference relative to No Dye [1]: 3%

Compound: Oc1cc2c(cc1O)[C@@H]1c3ccc(O)c(O)c3OC[C@]1(O)C2 [Hematoxylin]
- Main Peak Purity after 4 days at 40° C. (%) [1]: 39.82%
- Difference relative to No Dye [1]: −35%

Compound: O=S([O-])S(=O)(=O)[O-].[K+].[K+] [KDS, potassium metabisulfite]
- stabilization effect on mRNA purity (mRNA-LNP): Neither KDS nor methionine showed any stabilization effect

Compound: Cc1cc2nc3ccc(=[N+](C)C)cc-3[nH]c2cc1N [Neutral Red]
- Main Peak Purity after 4 days at 40° C. (%) [1]: 59.34%
- Difference relative to No Dye [1]: −16%

Compound: CCNc1cc2[s+]c3cc(NCC)c(C)cc3nc2cc1C [New methylene blue N]
- Main Peak Purity after 4 days at 40° C. (%) [1]: 68.61%
- Difference relative to No Dye [1]: −6%

Compound: CCN(CC)c1ccc2nc3c4ccccc4c(=N)cc-3oc2c1 [Nile Blue A]
- Main Peak Purity after 4 days at 40° C. (%) [1]: 70.75%
- Difference relative to No Dye [1]: −4%

Compound: CCN(CC)c1ccc2nc3c4ccccc4c(=O)cc-3oc2c1 [Nile Red]
- Main Peak Purity after 4 days at 40° C. (%) [1]: 77.56%
- Difference relative to No Dye [1]: 3%

Compound: CN(C)c1ccc2cc3ccc(=[N+](C)C)cc-3oc2c1.[Cl-] [Pyronin Y]
- Main Peak Purity after 4 days at 40° C. (%) [1]: 68.68%
- Difference relative to No Dye [1]: −6%

Compound: Cc1cc2nc3cc(C)c(N)cc3[n+](-c3ccccc3)c2cc1N [Safranin O]
- Main Peak Purity after 4 days at 40° C. (%) [1]: 89.14%
- stabilization effect on mRNA in LNP [1]: stabilization effects similar to that of methylene blue
- Difference relative to No Dye [1]: 14%

Compound: O=[N+]([O-])[O-].[Ag+] [Silver nitrate (0.1 N), Silver nitrate]
- Main Peak Purity after 4 days at 40° C. (%) [1]: 77.90%
- Difference relative to No Dye [1]: 3%

Compound: Cc1cc2nc3ccc(N(C)C)cc3[s+]c2cc1N [Toluidine Blue O]
- Main Peak Purity after 4 days at 40° C. (%) [1]: 74.66%
- Difference relative to No Dye [1]: 0%

Compound: CSCC[C@H](N)C(=O)O [methionine]
- stabilization effect on mRNA purity (mRNA-LNP): Neither KDS nor methionine showed any stabilization effect

Compound: Bromophenol Blue sodium salt
- Main Peak Purity after 4 days at 40° C. (%) [1]: 35.53%
- Difference relative to No Dye [1]: −39%

Compound: Leucomethylene Blue (mesylate)
- Main Peak Purity after 4 days at 40° C. (%) [1]: 89.46%
- stabilization effect on mRNA in LNP [1]: stabilization effects similar to that of methylene blue
- Difference relative to No Dye [1]: 14%
